Experimental data from patent US20040033944A1, “Method of treating erectile dysfunction” (priority 1999, published 2004).
Like-named read-outs stand apart in the source and are kept apart here.

How the values were obtained:
[1] = test system: corporal smooth muscle; conditions: for Acetylcholine ED50 (−Log (M)) / Sodium Nitroprusside ED50 (−Log (M)): 10 days after injection, mean SEM
Experimental: (§1) Animals: Male New Zealand White rabbits weighing 2.5-3 kg were fed either a normal rabbit diet (n=12) or a 1% cholesterol diet (n=12) (Harland Teklab, Madison, Wis.) for a total of 7.5 weeks. […] Ten days after the injection, the rabbits were euthanized and underwent penectomy with meticulous dissection of the corpora cavernosa from the tunica albuginia. Total serum cholesterol was determined using the enzymatic method prior to the initiation of the experimental diet and on serum samples drawn immediately prior to the procedure. Animal care and handling complied with published Guidelines (Institute of Laboratory Animal Resources, Commission on Life Sciences, National Research Council. Guide for the Care and Use of Laboraiton Animals. Washington: National Academy Press (1996)).
Isometric tension studies. Two corporal strips from each animal were suspended in 5 ml capacity organ baths containing Krebs physiological salt solution (122 mmol/liter NaCl. 4.7 mmol/liter KCl, 1.2 mmol/liter MgCl2, 2.5 mmol/liter CaCl2, 15.4 mmol/liter NaHCO3, 1.2 mmol/liter KH2PO4, and 5.5 mmol/liter glucose) maintained at 37° C. and oxygenated with 95% O2 and 5% CO2. Strips were attached to an adjustable force transducer and isometric responses were recorded on a multi-channel polygraph (Myograph F-60; Physiograph MK111-S; Narco Bio-Systems, Houston, Tex.). […] All subsequent testing was then performed at the optimal resting tension for each strip. Strips were sub-maximally pre-contracted with 10^−5 M norepinephrine, and after a contractile plateau was reached, acetylcholine (10^−8 to 10^−3 M) or sodium nitroprusside (10^−8 to 10^−4 M) was added cumulatively in logarithmic increments. Relaxation in response to each agent is expressed as a percentage of the active tension generated by the 10^−5 M dose of norepinephrine and converted to percentage of maximal response at each dose. These values were plotted against the negative logarithm of the agonist dose to produce relaxation dose-response curves. Logistic regression analysis with logit transformation was performed on the cumulative dose response curves from each treatment group to determine the ED25. ED50 and ED75 for each agent (Finney, Statistical Method in Biological Assay (3 ed.). London: Charles Griffin and Company LTD, p. 349-369 (1978), Kim et al, J Urol 151:198-205 (1994)).
(§2) Statistical evaluation. Each treatment group contained 6 animals (corporal strip n=12). Data are expressed as the mean±standard error of the mean (SEM). The responses of strips from each treatment group to acetylcholine or sodium nitroprusside were compared using the independent samples T-Test. […] The ED50 (sensitivity) and the maximal response were the principal outcomes assessed for each agent, and adjusting for multiple comparisons each outcome was assessed at the 0.025 level. Secondary outcomes, including cholesterol level, and the ED25 and the ED75 for each agent were tested at the 0.05 level without adjustment for multiple comparisons.
(§3) The route of administration can affect the efficacy of treatments for erectile dysfunction, as is seen in the difference between intrauretheral and intracavernosal alprostadil. […] Ten days after injection isometric tension studies were performed on corporal tissue. Sensitivity and maximal relaxation to acetylcholine (ACH) and sodium nitroprusside (SNP) were compared between treatment groups.
(§4) Ten days after injection, their corpora cavernosa were harvested, and isometric tension studies were performed. Relaxation to acetylcholine (ACH) and sodium nitroprusside (SNP) was compared within each group.
Animals: 36 New Zealand White rabbits were fed either a normal rabbit diet (n=12) or a 1% cholesterol diet (n=24) (Harland Teklab, Madison, Wis.) for a total of 7.5 weeks.

[2] = test system: VEGF protein expression in corporal tissue; conditions: for VEGF immunoexpression: IC VEGF 0.9 mg, mean±SEM
Experimental: as §1, §2, §3, §4

[3] = test system: adult rabbit penis; conditions: intracavernosal injections of VEGF
[4] = test system: VEGF in corporal tissue
Experimental: Animals: 36 New Zealand White rabbits were fed either a normal rabbit diet (n=12) or a 1% cholesterol diet (n=24) (Harland Teklab, Madison, Wis.) for a total of 7.5 weeks. […] Ten days after the injection, the rabbits were euthanized and underwent penectomy with meticulous dissection of the corpora cavernosa from the tunica albuginia. Total serum cholesterol was determined prior to the initiation of the experimental diet and immediately prior to the procedure.
Frozen corporal tissues were sonicated in 50 mM Tris radioimmunoprecipation assay buffer for 1 minute for protein isolation. […] The samples were quantified with a Molecular Devices Kinetic microplate reader using Apple SoftMax software. One ELISA was performed for each animal in each treatment group.
Statistical evaluation. Data are expressed as the mean standard error of the mean (SEM). […] Statistical significance was determined at the 0.05 level.

[5] = test system: trabecular smooth muscle content of corporal tissue; conditions: cholesterol-fed rabbits
Experimental: as §1
Statistical evaluation. Each treatment group contained 6 animals (corporal strip n=12). Data are expressed as the mean±standard error of the mean (SEM). The responses of strips from each treatment group to acetylcholine or sodium nitroprusside were compared using the independent samples T-Test. […] The ED50 (sensitivity) and the maximal response were the principal outcomes assessed for each agent, and adjusting for multiple comparisons each outcome was assessed at the 0.025 level. […]

[6] = test system: corpora cavernosa smooth muscle; conditions: hypercholesterolemic rabbits, three weekly intracavernosal injections of VEGF
Experimental: Fifteen male New Zealand White rabbits weighing 2 to 2.5 kg were used in a total of two arms in the study. […] Random serum total cholesterol levels were measured at the beginning of the study and after four weeks of the 1% cholesterol diet. At the end of four weeks, each rabbit underwent total penectomy and then was sacrificed. Each penis yielded two strips of tissue with a small amount of erectile tissue being placed in neutral buffered formalin 10%. The strips were suspended in tissue baths, and isometric tension studies were performed. Dose-response curves for norepinephrine were generated first in each strip to assess adrenergic-mediated cavernosal smooth muscle contraction. Next, dose-response curves for histamine were generated to assess histamine receptor mediated contraction of cavernosal smooth muscle. Submaximal contraction was then produced with 10^−3 concentration of norepinephrine and dose-response curves were then generated to evaluate endothelial-dependent (acetylcholine) smooth muscle relaxation. Once again, a submaximal contraction was produced using 10^−5 concentration of norepinephrine and dose response curves were then generated to evaluate endothelial-independent (sodium nitroprusside) smooth muscle relaxation.
Tissue. Cavernosal tissue procurement was performed under general anesthesia induced with Ketamine 50 mg/kg SC (Ketaset, Bristol Laboratories, Syracuse, N.Y.) and Xylazine 30 mg/kg SC (Rompun, Mobay Corp., Shawnee, Kans.). The penis was excised en bloc and placed in warm Krebs solution, where the corpora cavernosa were sharply dissected from the tunica albuginea producing a strip (approximately 0.3×0.3×0.7 cm.) from each corpus. The strips were then mounted in the oxygen tissue baths. After tissue collection, the rabbits were euthanized with an overdose of intravenous sodium pentobarbitol (100 mg/kg to effect). Care was taken throughout the procedure to minimize tissue manipulation.
Tissue Chambers. Each cavernosal strip was placed in a 25 ml tissue bath (Kent Scientific Corp.. Litchfield, Conn.). One end was hooked to a tissue holder and the other end w as hooked to a force transducer (FTO3, Grass Instruments, Quincy, Mass.) for determination of isometric tension. The bath was filled with a modified Kreb's physiologic salt solution with the following millimolar composition: NaCl 122, KCl 4.7, MgCl2 1.2, CaCl2 2.5, NaHCO3 15.4, KH2PO4 1.2. and glucose 5.5. A circulating water bath kept tissue chamber temperatures at 37C. Continuous aeration with 95% oxygen and 5% carbon dioxide maintained a pH of 7.4.
Optimal isometric tension determination. Each of the force transducers was connected to a transducer positioner enabling preload tension adjustment. Following suspension in the tissue chambers, the tension was periodically adjusted (at least every fifteen minutes) until the strip equilibrated at 0.5 gm. […] The optimal preload tension was then determined by contracting the tissue with 60 mM KCl Krebs solution (prepared by substituting 60 mM of sodium with equimolar amounts of potassium in Krebs-PSS solution) at increasing levels of preload (0.5 gm. increments). […] All subsequent testing was then performed at the determined optimal resting tension for each strip: Monitoring of tension was done with a four-channel polygraph (Grass 7D, Grass Instruments).
Isometric tension studies. The tissue was washed with Kreb's solution every fifteen minutes after each study until the tissue returned to baseline (at least one hour). Dose response curves for norepinephrine were obtained by cumulative addition of norepinephrine (10^−9 to 10^−4) in logarithmic increments.

[7] = cholesterol-fed rabbits, IV VEGF 0.9 mg vs vehicle
[8] = cholesterol-fed rabbits, intracavernosal 0.9 mg VEGF at week 6, 10 days after injection, mean±SEM
[9] = cholesterol-fed rabbits, single intravenous bolus VEGF 0.9 mg vs vehicle

VEGF
Acetylcholine ED50 (−Log (M)) ([1]; Cholesterol / IC VEGF 0.9 mg): 4.94 0.25 −Log (M) | Sodium Nitroprusside ED50 (−Log (M)) ([1]; Cholesterol / IC VEGF 0.9 mg): 6.36 0.16 −Log (M) | Acetylcholine ED50 (−Log (M)) ([1]; Cholesterol / IV VEGF 0.9 mg): 6.33 0.40 −Log (M) | Sodium Nitroprusside ED50 (−Log (M)) ([1]; Cholesterol / IV VEGF 0.9 mg): 6.93 0.25 −Log (M) | endothelium-dependent (acetylcholine) smooth muscle relaxation, effect of VEGF treatment ([1]; cholesterol-fed rabbits, IC VEGF 0.9 mg vs vehicle): not affected | SNP-mediated, direct smooth muscle relaxation, effect of IV VEGF treatment [1, 7]: significantly improved | endothelium-dependent smooth muscle relaxation, effect of IV VEGF treatment [1, 7]: augmented | maximal relaxation to acetylcholine [1, 8]: 78.6±6.2 grams | maximal relaxation to sodium nitroprusside [1, 8]: 113.9±6.3 grams | sensitivity (ED50) to acetylcholine relaxation [1, 8]: 4.94±0.25 (−Log)(M) | sensitivity to sodium nitroprusside relaxation at ED50 [1, 8]: 6.36±0.16 (−Log)(M) | sodium nitroprusside relaxation ED75 [1, 8]: 5.75±0.16 (−Log)(M) | endothelium dependent (ACH-mediated) maximal corporal smooth muscle relaxation, effect of VEGF [1, 9]: significantly augmented | endothelium independent (SNP-mediated) maximal corporal smooth muscle relaxation, effect of VEGF [1, 9]: significantly augmented | sensitivity (ED50) to ACH, effect of VEGF [1, 9]: enhanced | sensitivity (ED50) to SNP, effect of VEGF [1, 9]: enhanced | VEGF immunoexpression ([2]; cholesterol-fed animals): 19.67±1.38 arbitrary units | VEGF protein immunoexpression, effect of IV VEGF ([2]; cholesterol-fed animals, IV VEGF 0.9 mg vs vehicle): augmented | VEGF immunoexpression ([2]; normal diet animals): 37.6±1.12 arbitrary units | VEGF expression, effect of VEGF therapy ([2]; single intracavernosal VEGF 0.9 mg vs vehicle): augmented | tumescence [3]: approximately 80% | VEGF ELISA optical density (OD) minus background ([4]; cholesterol-fed animals treated with VEGF (IC)): 0.168 | VEGF ELISA optical density (OD) ([4]; cholesterol-fed animals, IV VEGF administration): 0.128 | smooth muscle content, effect of VEGF treatment ([5]; IC VEGF 0.9 mg vs vehicle): not affected | trabecular smooth muscle content ([5]; IC VEGF 0.9 mg, relative to normal diet, vehicle-treated = 1.0, mean±SEM): 0.82±0.016 arbitrary units | Acetylcholine Percent Maximal Relaxation [6]: 94.5±8.41% | Sensitivity to Acetylcholine ED25 [6]: −5.48 ± 0.33 | Sensitivity to Acetylcholine ED75 [6]: −3.50 ± 0.41 | Sensitivity to Sodium Nitroprusside ED75 [6]: −5.52 ± 0.18 | Sodium Nitroprusside Percent Maximal Relaxation [6]: 145 ± 8.26%
